Structures are written as SMILES.

As for `Cc1nc(Cl)c(/C=C/C(=O)NS(=O)(=O)/C=C/c2ccccc2)n1Cc1ccc(-c2ccco2)cc1Cl` [Example 2, (2E)-3-(4-chloro-1-(2-chloro-4-(2-furyl)benzyl)-2-methylimidazol-5-yl)-N-(((E)-2-phenylethenyl)sulfonyl)-2-propenamide], the melting point fell in the range of 227 to 228 °C.
Under `Cc1nc(Cl)c(/C=C/C(=O)NS(=O)(=O)/C=C/c2ccccc2)n1Cc1ccc(-c2cccs2)cc1Cl` [Example 4, (2E)-3-(4-chloro-1-(2-chloro-4-(2-thienyl)benzyl)-2-methylimidazol-5-yl)-N-(((E)-2-phenylethenyl)sulfonyl)-2-propenamide] stands 246 to 248 °C.
The compound `Cc1nc(Cl)c(/C=C/C(=O)NS(=O)(=O)/C=C/c2ccccc2)n1Cc1ccc(C#Cc2ccccc2)cc1Cl` [Example 6, (2E)-3-(4-chloro-1-(2-chloro-4-(phenylethynyl)benzyl)-2-methylimidazol-5-yl)-N-(((E)-2-phenylethenyl)sulfonyl)-2-propenamide] displayed a melting point of 220 to 222 °C.
Under `Cc1nc(Cl)c(/C=C/C(=O)NS(=O)(=O)/C=C/c2ccccc2)n1Cc1ccc(Br)cc1Cl` [Example 8, (E)-3-(1-(4-bromo-2-chlorobenzyl)-4-chloro-2-methylimidazol-5-yl)-N-(((E)-2-phenylethenyl)sulfonyl)-2-propenamide] stands 250 to 251 °C.
Under `CCCCCS(=O)(=O)NC(=O)/C=C/c1c(Cl)nc(C)n1Cc1ccc(-c2ccccc2)cc1Cl` [Example 9, (E)-3-[4-chloro-1-(2-chloro-4-phenylbenzyl)-2-methylimidazol-5-yl]-N-(1-pentanesulfonyl)-2-propenamide] stands 203 to 204 °C; under `Cc1nc(Cl)c(/C=C/C(=O)NS(=O)(=O)c2ccccc2)n1Cc1ccc(-c2ccccc2)cc1Cl` [Example 10, (E)-N-benzenesulfonyl-3-[4-chloro-1-(2-chloro-4-phenylbenzyl)-2-methylimidazol-5-yl]-2-propenamide], 245 to 247 °C; under `Cc1nc(Cl)c(/C=C/C(=O)NS(=O)(=O)/C=C/c2ccccc2)n1Cc1ccc(-c2ccccc2)cc1Cl` [Example 12, (E)-3-(4-chloro-1-(2-chloro-4-phenylbenzyl)-2-methylimidazol-5-yl)-N-(((E)-2-phenylethenyl)sulfonyl)-2-propenamide], 240 to 241 °C.
For `Cc1nc(Cl)c(/C=C/C(=O)NS(=O)(=O)c2ccc(Cl)s2)n1Cc1ccc(-c2ccccc2)cc1Cl` [Example 13, (E)-3-(4-chloro-1-(2-chloro-4-phenylbenzyl)-2-methylimidazol-5-yl)-N-((5-chloro-2-thienyl)sulfonyl)-2-propenamide], the melting point was in the range of 229 to 233 °C.
For `Cc1nc(Cl)c(/C=C/C(=O)NS(=O)(=O)c2ccc(Br)s2)n1Cc1ccc(-c2ccccc2)cc1Cl` [Example 14, (E)-N-((5-bromo-2-thienyl)sulfonyl)-3-(4-chloro-1-(2-chloro-4-phenylbenzyl)-2-methylimidazol-5-yl)-2-propenamide] the value was 234 to 235 °C.
Compound `CCCOc1ccc(Cn2c(C)nc(Cl)c2/C=C/C(=O)NS(=O)(=O)/C=C/c2ccccc2)c(Cl)c1` [Example 16, (E)-3-(4-chloro-1-(2-chloro-4-(1-propoxy)benzyl)-2-methylimidazol-5-yl)-N-(((E)-2-phenylethenyl)sulfonyl)-2-propenamide] had a melting point of 199 to 201 °C.
Turning to `CCCCCOc1ccc(Cn2c(C)nc(Cl)c2/C=C/C(=O)NS(=O)(=O)/C=C/c2ccccc2)c(Cl)c1` [Example 18, (E)-3-(4-chloro-1-(2-chloro-4-(1-pentyloxy)benzyl)-2-methylimidazol-5-yl)-N-(((E)-2-phenylethenyl)sulfonyl)-2-propenamide], the melting point was in the range of 196 to 199 °C.
Under `CCCCCS(=O)(=O)NC(=O)/C=C/c1c(Cl)nc(C)n1Cc1ccc(OCC2CCCC2)cc1Cl` [Example 19, (E)-3-(4-chloro-1-(2-chloro-4-((cyclopentyl)methyloxy)benzyl)-2-methylimidazol-5-yl)-N-(1-pentanesulfonyl)-2-propenamide] stands 177 to 178 °C; under `Cc1nc(Cl)c(/C=C/C(=O)NS(=O)(=O)/C=C/c2ccccc2)n1Cc1ccc(OCC2CCCC2)cc1Cl` [Example 21, (2E)-3-(4-chloro-1-(2-chloro-4-((cyclopentyl)methyloxy)benzyl)-2-methylimidazol-5-yl)-N-(((E)-2-phenylethenyl)sulfonyl)-2-propenamide], 200 to 201 °C.
For `Cc1nc(Cl)c(/C=C/C(=O)NS(=O)(=O)/C=C/c2ccccc2)n1Cc1ccc(OCC2CCCCC2)cc1Cl` [Example 23, (2E)-3-(4-chloro-1-(2-chloro-4-((cyclohexyl)methyloxy)benzyl)-2-methylimidazol-5-yl)-N-(((E)-2-phenylethenyl)sulfonyl)-2-propenamide] the value was 210 to 212 °C.
For `Cc1nc(Cl)c(/C=C/C(=O)NS(=O)(=O)/C=C/c2ccccc2)n1Cc1ccc(OCc2ccccc2)cc1Cl` [Example 25, (E)-3-(1-(4-benzyloxy-2-chlorobenzyl)-4-chloro-2-methylimidazol-5-yl)-N-(((E)-2-phenylethenyl)sulfonyl)-2-propenamide] the value was 225 to 227 °C; for `CSc1ccc(Cn2c(C)nc(Cl)c2/C=C/C(=O)NS(=O)(=O)/C=C/c2ccccc2)c(Cl)c1` [Example 27, (E)-3-(4-chloro-1-(2-chloro-4-(methylthio)benzyl)-2-methylimidazol-5-yl)-N-(((E)-2-phenylethenyl)sulfonyl)-2-propenamide], 237 to 238 °C.
With `Cc1nc(Cl)c(/C=C/C(=O)NS(=O)(=O)/C=C/c2ccccc2)n1Cc1ccc(C(F)(F)F)cc1Cl` [Example 29, (E)-3-(4-chloro-1-(2-chloro-4-(trifluoromethyl)benzyl)-2-methylimidazol-5-yl)-N-(((E)-2-phenylethenyl)sulfonyl)-2-propenamide], the melting point fell in the range of 261 to 263 °C.
For `Cc1nc(Cl)c(/C=C/C(=O)NS(=O)(=O)/C=C/c2ccccc2)n1Cc1ccc(COc2ccccc2)cc1Cl` [Example 31, (E)-3-(4-chloro-1-(2-chloro-4-(phenoxymethyl)benzyl)-2-methylimidazol-5-yl)-N-(((E)-2-phenylethenyl)sulfonyl)-2-propenamide], the melting point fell in the range of 202 to 203 °C.
For `Cc1nc(Cl)c(/C=C/C(=O)NS(=O)(=O)/C=C/c2ccccc2)n1Cc1ccc([N+](=O)[O-])cc1Cl` [Example 33, (E)-3-(4-chloro-1-(2-chloro-4-nitrobenzyl)-2-methylimidazol-5-yl)-N-(((E)-2-phenylethenyl)sulfonyl)-2-propenamide], the melting point was in the range of 199 to 201 °C.
In turn, `Cc1nc(Cl)c(/C=C/C(=O)NS(=O)(=O)/C=C/c2ccccc2)n1Cc1ccc(/C=C/c2ccccc2)cc1Cl` [Example 35, (E)-3-(4-chloro-1-(2-chloro-4-((E)-2-phenylethenyl)benzyl)-2-methylimidazol-5-yl)-N-(((E)-2-phenylethenyl)sulfonyl)-2-propenamide] registered a melting point of 230 to 232 °C.
Under `CCCCCS(=O)(=O)NC(=O)/C=C/c1c(Cl)nc(C)n1Cc1ccc(/C=C/c2ccccc2)cc1Cl` [Example 41, (E)-3-(4-chloro-1-(2-chloro-4-((E)-2-phenylethenyl)benzyl)-2-methylimidazol-5-yl)-N-(1-pentanesulfonyl)-2-propenamide] stands 215 to 216 °C.

Values taken from patent US7060721B1, “Imidazole compounds and medicinal use thereof” (Fujisawa Pharmaceutical Co., Ltd., priority 1998, dated 2006).
